{
  "source": "patent US12220410B2",
  "about": "“Antitumor composition” (priority 2019, dated 2025)",
  "key": {"[1]": {"test_system": "human follicular lymphoma cell line DOHH-2", "assay": "In vitro cell growth inhibition test (CellTiter-Fluor), DOHH-2", "type": "cell-based", "conditions": "DOHH-2"}, "[2]": {"test_system": "human diffuse large B-cell lymphoma (DLBCL) cell line OCI-Ly7", "assay": "In vitro cell growth inhibition test, OCI-Ly7 (cell viability, combination index)", "type": "cell-based", "conditions": "bendamustine 0 nM"}, "[3]": {"test_system": "human diffuse large B-cell lymphoma cell line OCI-Ly7", "type": "in vivo", "conditions": "for Tumor growth delay / Tumor growth delay rate: relative tumor volume 1600%"}, "[4]": {"test_system": "human breast cancer cell line MDA-MB-453", "assay": "In vivo antitumor effect test, MDA-MB-453 tumor, compound A and lapatinib (Example 37)", "set-up": "species or system NOD-SCID mice", "conditions": "for Tumor growth delay / Tumor growth delay rate: relative tumor volume 200%", "experimental": "The tumor volume was calculated from tumor diameters by the following formula: (Long diameter×[Short diameter]^2×0.5). Using the calculated tumor volume value, the relative tumor volume (ratio of the tumor volume on the day of measurement to the baseline tumor volume on Day 1) was calculated. […] Further, the tumor growth delay rate (% TGD) was calculated according to the following formula: % TGD={(T−C)/C}×100, Where: • T: […] relative tumor volume of the control group to reach 1600% 6) Statistical Analysis\nCompound A was suspended in a 1% hypromellose solution to prepare 20 mg/mL test substance suspensions (a suspension for preparing a single administration solution and a suspension for preparing a 100 mg/kg combined administration solution). The 20 mg/mL test substance suspensions were diluted with a 1% hypromellose solution to prepare 10 mg/mL (100 mg/kg administration solution), 6 mg/mL (suspension for preparing a 30 mg/kg combined administration solution), and 3 mg/mL (30 mg/kg administration solution) test substance suspensions. Lapatinib was suspended in a 1% hypromellose solution to prepare a 20 mg/mL suspension for preparing a 100 mg/kg lapatinib combined administration solution. The 20 mg/mL suspension was diluted with a 1% hypromellose solution to prepare a 10 mg/mL suspension for 100 mg/kg single administration. The administration solution of the combination group was prepared by mixing the 6 mg/mL compound A suspension and the 20 mg/mL lapatinib suspension at 1:1, or mixing the 20 mg/mL compound A suspension and the 20 mg/mL lapatinib suspension at 1:1.\nMDA-MB-453 was obtained from ATCC. […] The collected cells were suspended in serum-free RPMI 1640 medium at 1.0×10^8 cells/mL.\n5-week-old female NOD-SCID mice (NOD.CB17-Prkdcscid/J, produced by Charles River Japan Co., Ltd.) were used. The female NOD-SCID mice were bred in the same manner as in Example 36. The cell suspension was inoculated at 2×10^7 cells/body into the subcutaneous space of the right axillary region of the 6-week-old NOD-SCID mice, and the mice were grouped in the same manner as in Example 36 using the tumor volume as an index.\nThe administration was started on the next day of the grouping (Day 2), and compound A and lapatinib were orally administered once a day for 28 consecutive days. Each group (N=8) was treated as follows. • (1) Control (solvent control) group: 1% hypromellose solution • (2) Compound A (30 mg/kg) treated group: 30 mg/kg of compound A (oral administration once a day for 28 consecutive days) • (3) Compound A (100 mg/kg) treated group: 100 mg/kg of compound A (oral administration once a day for 28 consecutive days) • (4) Lapatinib (100 mg/kg) treated group: 100 mg/kg of lapatinib (oral administration once a day for 28 consecutive days) • (5) Combination group 1: 30 mg/kg of compound A (oral administration once a day for 28 consecutive days)+100 mg/kg of lapatinib (oral administration once a day for 28 consecutive days) • (6) Combination group 2: 100 mg/kg of compound A (oral administration once a day for 28 consecutive days)+100 mg/kg of lapatinib (oral administration once a day for 28 consecutive days)"}, "[5]": {"test_system": "human diffuse large B-cell lymphoma cell line OCI-Ly7", "type": "in vivo"}, "[6]": {"test_system": "human diffuse large B-cell lymphoma cell line OCI-Ly7", "type": "in vivo", "remark": "listed apart in the source"}, "[7]": {"test_system": "human acute myelogenous leukemia (AML) cell line KG-1", "type": "in vivo"}, "[8]": {"test_system": "human acute myelogenous leukemia (AML) cell line KG-1", "type": "in vivo", "remark": "listed apart in the source"}, "[9]": {"test_system": "human diffuse large B-cell lymphoma cell line OCI-Ly7", "set-up": "species or system SCID mice", "conditions": "mouse, in vivo"}, "[10]": {"test_system": "human acute myelogenous leukemia (AML) cell line KG-1", "type": "in vivo", "remark": "listed apart in the source"}, "[11]": {"conditions": "compound A 10 mg/kg orally once a day for 14 days"}, "[12]": {"conditions": "compound A 30 mg/kg orally once a day for 14 days"}, "[13]": {"conditions": "compound A 100 mg/kg orally once a day for 14 days"}, "[14]": {"conditions": "compound A 30 mg/kg orally once a day for 28 days"}, "[15]": {"conditions": "compound A 100 mg/kg orally once a day for 28 days"}, "[16]": {"conditions": "compound A 30 mg/kg orally once a day for 21 days, relative tumor volume 600%"}},
  "note": "Where two headings read alike, the source gives them in different places.",
  "data": [
    {"smiles": "CNc1ccc(Oc2ccc(NC(=O)c3ccc(C(F)(F)F)cc3)cn2)c(C)c1.Cl", "note": "[Compound A, N-{6-[2-methyl-4-(methylamino)phenoxy]pyridin-3-yl}-4-(trifluoromethyl)benzamide hydrochloride]", "values": [
      {"measurement": "FIC (fractional inhibitory concentration)", "setting": "[1]; bendamustine fixed at 0 nM, compound A at its IC50", "result": 1},
      {"measurement": "FIC (fractional inhibitory concentration)", "setting": "[1]; bendamustine fixed at 1250 nM, compound A at its IC50", "result": 0.595},
      {"measurement": "FIC (fractional inhibitory concentration)", "setting": "[1]; bendamustine fixed at 2500 nM, compound A at its IC50", "result": 0.258},
      {"measurement": "FIC (fractional inhibitory concentration)", "setting": "[1]; bendamustine fixed at 5000 nM, compound A at its IC50", "result": 0.123},
      {"measurement": "FIC (fractional inhibitory concentration)", "setting": "[1]; compound A fixed at 0 nM, bendamustine at its IC50", "result": 0},
      {"measurement": "FIC (fractional inhibitory concentration)", "setting": "[1]; compound A fixed at 39.1 nM, bendamustine at its IC50", "result": 0.103},
      {"measurement": "FIC (fractional inhibitory concentration)", "setting": "[1]; compound A fixed at 78.1 nM, bendamustine at its IC50", "result": 0.205},
      {"measurement": "FIC (fractional inhibitory concentration)", "setting": "[1]; compound A fixed at 156.3 nM, bendamustine at its IC50", "result": 0.410},
      {"measurement": "FIC (fractional inhibitory concentration)", "setting": "[1]; compound A fixed at 312.5 nM, bendamustine at its IC50", "result": 0.820},
      {"measurement": "Cell viability (ratio relative to the drug-free control)", "setting": "[2]; compound A 0.25 nM, OCI-Ly7, 8000 cells/well", "result": 0.79},
      {"measurement": "Cell viability (ratio relative to the drug-free control)", "setting": "[2]; compound A 0.5 nM, OCI-Ly7", "result": 0.76},
      {"measurement": "Cell viability (ratio relative to the drug-free control)", "setting": "[2]; compound A 1 nM, OCI-Ly7", "result": 0.61},
      {"measurement": "Cell viability (ratio relative to the drug-free control)", "setting": "[2]; compound A 2 nM, OCI-Ly7", "result": 0.50},
      {"measurement": "effectiveness of monotherapy (tumor growth delay)", "setting": "[3]; 30 or 100 mg/kg of compound A, 50 mg/kg of cyclophosphamide", "result": "effective"},
      {"measurement": "Median Time (time for relative tumor volume to reach 1600%)", "setting": "[3]; [11]", "result": 13.2, "unit": "days"},
      {"measurement": "Tumor growth delay", "setting": "[3]; [11]", "result": 0.5, "unit": "days"},
      {"measurement": "Tumor growth delay rate", "setting": "[3]; [11]", "result": 3.5, "unit": "%"},
      {"measurement": "Median Time (time for relative tumor volume to reach 1600%)", "setting": "[3]; [12]", "result": 23.0, "unit": "days"},
      {"measurement": "Tumor growth delay", "setting": "[3]; [12]", "result": 10.3, "unit": "days"},
      {"measurement": "Median Time (time for relative tumor volume to reach 1600%)", "setting": "[3]; [13]", "result": 31.5, "unit": "days"},
      {"measurement": "Tumor growth delay", "setting": "[3]; [13]", "result": 18.8, "unit": "days"},
      {"measurement": "Tumor growth delay rate", "setting": "[3]; [13]", "result": 147.6, "unit": "%"},
      {"measurement": "effectiveness of monotherapy (tumor growth delay)", "setting": "[4]; 30 or 100 mg/kg of compound A, 100 mg/kg of lapatinib", "result": "effective"},
      {"measurement": "Median Time (time for relative tumor volume to reach 200%)", "setting": "[4]; [14]", "result": 39.3, "unit": "days"},
      {"measurement": "Tumor growth delay", "setting": "[4]; [14]", "result": 16.5, "unit": "days"},
      {"measurement": "Tumor growth delay rate", "setting": "[4]; [14]", "result": 72.4, "unit": "%"},
      {"measurement": "Median Time (time for relative tumor volume to reach 200%)", "setting": "[4]; [15]", "result": ">99.0", "unit": "days"},
      {"measurement": "Tumor growth delay", "setting": "[4]; [15]", "result": ">76.2", "unit": "days"},
      {"measurement": "Tumor growth delay rate", "setting": "[4]; compound A 100 mg/kg orally once a day for 28 days, hydrochloride, 100 mg/kg", "result": ">334.2", "unit": "%"},
      {"measurement": "Tumor growth delay rate", "setting": "[4]; compound A 100 mg/kg orally once a day for 28 days, listed as compound A, hydrochloride, 100 mg/kg", "result": "> 334.2", "unit": "%"},
      {"measurement": "effectiveness of monotherapy (tumor growth delay)", "setting": "[5]; 30 mg/kg of compound A, 15 mg/kg of bendamustine", "result": "effective"},
      {"measurement": "Median Time (time for relative tumor volume to reach 1600%)", "setting": "[5]; [12]", "result": 23.9, "unit": "days"},
      {"measurement": "Tumor growth delay", "setting": "[5]; compound A 30 mg/kg orally once a day for 14 days, relative tumor volume 1600%", "result": 8.4, "unit": "days"},
      {"measurement": "effectiveness of monotherapy (tumor growth delay)", "setting": "[6]; 30 mg/kg of compound A, 10 mg/kg of rituximab", "result": "effective"},
      {"measurement": "Median Time (time for relative tumor volume to reach 600%)", "setting": "[6]; compound A 30 mg/kg orally once a day for 21 days", "result": 28.4, "unit": "days"},
      {"measurement": "Tumor growth delay", "setting": "[6]; [16]", "result": 12.1, "unit": "days"},
      {"measurement": "Tumor growth delay rate", "setting": "[6]; [16]", "result": 73.9, "unit": "%"},
      {"measurement": "antitumor effect on KG-1 tumor (monotherapy)", "setting": "[7]; compound A 30 mg/kg, decitabine 1 mg/kg", "result": "antitumor effect"},
      {"measurement": "T/C (ratio of relative tumor volume of treated group to control group)", "setting": "[7]; compound A monotherapy 30 mg/kg orally, daily, 21 days, Day 23", "result": 45.2, "unit": "%"},
      {"measurement": "antitumor effect on KG-1 tumor (monotherapy)", "setting": "[8]; compound A 30 mg/kg, cytarabine 50 mg/kg", "result": "antitumor effect"},
      {"measurement": "T/C (ratio of relative tumor volume of treated group to control group)", "setting": "[8]; compound A monotherapy 30 mg/kg orally, daily, 14 days, Day 16", "result": 52.0, "unit": "%"},
      {"measurement": "effectiveness (tumor growth delay)", "setting": "[9]", "result": "effective"},
      {"measurement": "Median Time (time for relative tumor volume to reach 800%)", "setting": "[9]; po, 30 mg/kg", "result": 18.2, "unit": "days"},
      {"measurement": "Tumor growth delay", "setting": "[9]; po, 30 mg/kg", "result": 8.3, "unit": "days"},
      {"measurement": "Tumor growth delay rate", "setting": "[9]; po, 30 mg/kg", "result": 83.8, "unit": "%"},
      {"measurement": "antitumor effect on KG-1 tumor", "setting": "[10]; compound A 50 mg/kg, venetoclax 50 mg/kg + decitabine 1 mg/kg", "result": "antitumor effect"},
      {"measurement": "T/C (ratio of relative tumor volume of treated group to control group)", "setting": "[10]; compound A single administration 50 mg/kg orally, daily, 14 days, Day 16", "result": 29.2, "unit": "%"}
    ]}
  ]
}
